Source: US10772931B2, “Collagen binding synthetic peptidoglycans for treatment of endothelial dysfunction” (Purdue Research Foundation, priority 2014, dated 2020)

Assays:
E-selectin [1] = assay: E-selectin production, quiescent co-cultures; assay type: cell-based, human; settings: PDGF alone
Procedure: (§1) To better mimic the physiology of the vessel wall and further investigate the effects of therapeutics on ECs in a biologically relevant manner, two EC-SMC co-culture models, designed to mimic either healthy or diseased vasculature, were established. ECs were cultured as stated previously. Human coronary artery smooth muscle cells (SMC, Invitrogen) were cultured in Media 231 (M231, Invitrogen), supplemented with (all from Invitrogen) 4.9% FBS, 2 ng/mL FGF, […], 5 ng/mL heparin, 5 μg/mL insulin, and 0.2 μg/mL bovine serum albumin. SMCs were seeded at 5×10^4 cells/cm^2 in Ibidi angiogenesis μ-slide and allowed to proliferate for 24 hrs to allow the formation of multilayered cell constructs. Media was removed and cultures were treated either with proliferative media, as described above, or contractile media to induce a quiescent phenotype, for 24 hrs. […]
(§2) Following treatment with DS-SILY20 with or without 10 ng/mL PDGF for 24 hrs, cells were washed twice with ice cold PBS and solubilized in lysis buffer (9 M urea, 4% CHAPS, and phosphatase inhibitor cocktail-1 in Millipore water). […] A BCA assay protein kit (Pierce) was used to quantify total protein. […] After washing three times with PBS with 0.05% Tween-20, 2× Read buffer was added to the plate and imaged using a Sector Imager 2400A. Data were analyzed using the MSD Discovery Workbench Software.

interferon-γ (IFN-γ) [2] = assay: IFN-γ production, quiescent co-cultures; assay type: cell-based, human; settings: 10 ng/mL PDGF alone
Procedure: as §1
(§3) Cells were incubated in the presence of DS-SILY20 with or without 10 ng/mL PDGF for 24 hrs. […] After washing three times with PBS with 0.05% Tween-20, 2× read buffer was added to the plate and imaged using a Sector Imager 2400A (Meso Scale Discovery). […] Data were analyzed using the MSD Discovery Workbench Software.

thrombomodulin [3] = assay: Thrombomodulin production, hyperplastic co-cultures; assay type: cell-based, human; settings: PDGF alone
Procedure: as §1, §2

[4] = tested on: tumor necrosis factor-α (TNF-α); assay: TNF-α production, quiescent co-cultures; assay type: cell-based, human; settings: 10 ng/mL PDGF alone
Procedure: as §1, §3

thrombomodulin [5] = assay: Thrombomodulin production in EC monolayers (Vascular Injury Marker I kit); assay type: cell-based, human; settings: PDGF alone
Procedure: (§4) Human aortic endothelial cells (EC, Invitrogen) were cultured in Media 200 (M200, Invitrogen), supplemented with (all from Invitrogen) 2% fetal bovine serum (FBS), 1 μg/mL hydrocortisone, 10 ng/mL epidermal growth factor (EGF), 3 ng/mL basic fibroblast growth factor (FGF), and 10 μg/mL heparin. Unless otherwise noted, cells were initially seeded at 3×10^5 cells/cm^2 in Ibidi angiogenesis μ-slide (Ibidi) and allowed to proliferate for 24 hrs to establish a confluent monolayer, prior to the application of treatments to the EC cultures. Cells were used between passage numbers 3 and 8 for all assays and maintained at 37° C. with 5% CO2.
(§5) Following treatment with DS-SILY20 with or without 10 ng/mL PDGF for 24 hrs, cells were washed twice with ice cold PBS and solubilized in lysis buffer (9 M urea, 4% CHAPS, and phosphatase inhibitor cocktail-1 in Millipore water). Lysates were processed at 4° C. for 30 mins prior to centrifugation for 20 mins at 18,000×g to remove membrane components. A BCA assay protein kit (Pierce) was used to quantify total protein. […] After washing three times with PBS with 0.05% Tween-20, 2× Read buffer was added to the plate and imaged using a Sector Imager 2400A. Data were analyzed using the MSD Discovery Workbench Software.

interleukin-6 (IL-6) [6] = assay: IL-6 production, hyperplastic co-cultures; assay type: cell-based, human; settings: 10 ng/mL PDGF alone
Procedure: as §1, §3

P-selectin [7] = assay: P-selectin production, hyperplastic co-cultures; assay type: cell-based, human; settings: PDGF alone
Procedure: as §1, §2

P-selectin [8] = assay: P-selectin production in EC monolayers (Vascular Injury Marker I kit); assay type: cell-based, human; settings: PDGF alone
Procedure: as §4, §5

interferon-γ (IFN-γ) [9] = assay: IFN-γ production, hyperplastic co-cultures; assay type: cell-based, human; settings: 10 ng/mL PDGF alone
Procedure: as §1, §3

[10] = tested on: Human aortic endothelial cells (EC); assay: EC migration on collagen (Oris Cell Migration Kit); assay type: cell-based; settings: PDGF stimulation alone (10 ng/mL), 48 hrs
Procedure: Fibrillar collagen was coated in wells of 96-well Oris Cell Migration Kit (Platypus Technologies, Madison). Stoppers were inserted into the plate to block an inner circular portion of the well. ECs were seeded at 5×10^3 cells/well and grown to confluence in the outer portion of the well. After 48 hrs, the stoppers in the wells were removed and ECs were stained with cell tracker green (Invitrogen). To determine the effects of treatments on migration alone, ECs were dosed with 25 μg/mL mitomycin C (Sigma) for 30 mins to inhibit proliferation. Various DS-SILY20 concentrations, solubilized in M200+LSGS, were then incubated on the exposed collagen surface in the inner portion of the well for 15 min at 37° C. Unbound DS-SILY20 was rinsed from the surface and cell media, with or without 10 ng/mL PDGF, was returned to the wells. ECs were allowed to migrate from the outer to the inner portion of the wells for 48 hrs. At 48 hrs, fluorescence measurements of the center of each well were measured using a mask provided with the migration kit such that only the treated inner circular portion of the well was measured.

thrombomodulin [11] = assay: Thrombomodulin production, quiescent co-cultures; assay type: cell-based, human; settings: PDGF alone
Procedure: as §1, §2

[12] = tested on: Human aortic endothelial cells (EC); assay: EC proliferation (Hoescht 33342 nuclei stain); assay type: cell-based; settings: PDGF alone (10 ng/mL), 24 hrs
Procedure: as §4
Cultures were incubated in the presence of DS-SILY20 with or without 10 ng/mL PDGF for 24 hrs. Cells were nuclei stained with Hoescht 33342 and […] to determine the effect of DS-SILY20 and PDGF on cell proliferation.

[13] = tested on: tumor necrosis factor-α (TNF-α); assay: TNF-α production, hyperplastic co-cultures; assay type: cell-based, human; settings: 10 ng/mL PDGF alone
Procedure: as §1, §3

PDGF receptor β (PDGFRβ) = assay: PDGFRβ phosphorylation in ECs (sandwich ELISA); assay type: cell-based, human; settings: EC monolayers, PDGF treatment alone (10 ng/mL)
Procedure: Cells were incubated in the presence of DS-SILY20 with and without 10 ng/mL PDGF for 60 mins prior to washing with ice cold TBS and […] solubilized in lysis buffer (1% NP-40 Alternative, 20 mM Tris, 137 mM NaCl, 10% glycerol, 2 mM EDTA, 1 mM activated sodium orthovanadate, 10 μg/mL Aprotinin, and 10 μg/mL Leupeptin). Lysates were processed at 4° C. for 30 mins prior to centrifugation for 5 mins at 2000×g to remove membrane components. Sandwich ELISAs (all from R&D systems) were utilized to measure total PDGF receptor β (PDGFRβ) and total phosphotyrosine PDGFRβ. All assays were performed following the manufacturer's protocol.

E-selectin [14] = assay: E-selectin production, hyperplastic co-cultures; assay type: cell-based, human; settings: PDGF alone
Procedure: as §1, §2

[15] = tested on: quiescent EC-SMC co-cultures; assay: Metabolic activity (MTS), quiescent EC-SMC co-cultures; assay type: cell-based, human; settings: PDGF stimulation alone
Procedure: as §1
(§6) Cultures were incubated in the presence of 0, 0.01, 0.1, 1, or 10 μM DS-SILY20, with and without 10 ng/mL PDGF, for 24 hrs. The metabolic activity of the cells was determined using the CellTiter 96 AQueous One Solution Cell Proliferation Assay (Promega). […] The media containing MTS was then transferred into a 96-well plate and absorbance at 490 nm was measured.

p38 MAPK (p38) = assay: p38 MAPK phosphorylation in EC monolayers; assay type: cell-based, human; settings: PDGF alone
Procedure: (§7) The phosphorylation of mitogen-activated protein kinases (MAPK), including extracellular signal-related kinase (ERK) and p38 MAPK (p38), was examined. Cells were incubated in the presence of DS-SILY20 with or without 10 ng/mL PDGF for […] prior to washing with ice cold tris buffered saline (TBS) and solubilized in lysis buffer (150 mM NaCl, 20 mM Tris, 1 mM EDTA, 1 mM EGTA, 1% Triton-X-100, plus protease inhibitors and phosphatase inhibitors). Lysates were processed at 4° C. for 30 mins prior to centrifugation for 20 mins at 18,000×g to remove membrane components. Phospho-p38 (Thr180/Tyr182) and phospho-ERK-1/2 (Thr/Tyr: 202/204; 185/187) levels were evaluated using the MAP Kinase Whole Cell Lysate kit (Meso Scale Discovery); Total p38 and total ERK-1/2 were determined via MAP Kinase (Total Protein) Whole Cell Lysate Kit (Meso Scale Discovery), according to manufacturer's instructions. Briefly, plates were warmed to room temperature and incubated with 25 μL of samples for 3 hrs at room temperature with vigorous shaking. Following gentle rinsing of the wells, the detection antibody was then added and incubated for 1 hr at room temperature with vigorous shaking. After washing three times with TBS, 2× read buffer was added to the plate and imaged using a Sector Imager 2400A. Data were analyzed using the MSD Discovery Workbench Software. […]

E-selectin [16] = assay: E-selectin production in EC monolayers (Vascular Injury Marker I kit); assay type: cell-based, human; settings: 10 ng/mL PDGF alone
Procedure: as §4, §5

interleukin-6 (IL-6) [17] = assay: IL-6 expression in EC monolayers (Pro-Inflammatory I kit); assay type: cell-based, human; settings: 10 ng/mL PDGF alone, 24 hrs
Procedure: as §4
Cells were incubated in the presence of DS-SILY20 with or without 10 ng/mL PDGF for 24 hrs. Media was removed from the cultures and a Pro-Inflammatory I kit (Meso Scale Discovery) was used to analyze cytokine production from EC monolayers, hyperplastic co-cultures, and quiescent co-cultures according to manufacturer's instructions. Briefly, plates were warmed to room temperature and incubated with 25 μL of samples and standards for 2 hrs at room temperature with vigorous shaking. […] After washing three times with PBS with 0.05% Tween-20, 2× read buffer was added to the plate and imaged using a Sector Imager 2400A (Meso Scale Discovery). […] Data were analyzed using the MSD Discovery Workbench Software.

[18] = tested on: Human aortic endothelial cells (EC); assay: Metabolic activity (CellTiter 96 AQueous One, MTS), EC monolayers; assay type: cell-based; settings: 10 ng/mL PDGF alone, 24 hrs
Procedure: as §4
Cultures were incubated in the presence of 0, 0.01, 0.1, 1, or 10 μM DS-SILY20, with and without 10 ng/mL PDGF, for 24 hrs. The metabolic activity of the cells was determined using the CellTiter 96 AQueous One Solution Cell Proliferation Assay (Promega). Briefly, media was mixed with 3-(4,5-dimethylthiazol-2-yl)-5-(3-carboxymethoxyphenyl)-2-(4-sulfophenyl)-2H-tetrazolium, inner salt (MTS) and cultures were re-incubated for 2 hrs at 37° C. with 5% CO2. The media containing MTS was then transferred into a 96-well plate and absorbance at 490 nm was measured.

[19] = tested on: hyperplastic EC-SMC co-cultures; assay: Metabolic activity (MTS), hyperplastic EC-SMC co-cultures; assay type: cell-based, human; settings: PDGF stimulation alone
Procedure: as §1, §6

ERK-1/2 = ERK-1/2 phosphorylation in EC monolayers; assay type: cell-based, human; settings: 10 ng/mL PDGF alone, 10 mins
Procedure: as §7

P-selectin [20] = assay: P-selectin production, quiescent co-cultures; assay type: cell-based, human; settings: PDGF alone
Procedure: as §1, §2

phospho-PDGFRβ levels (PDGF receptor β (PDGFRβ)): significantly increased
Substance: platelet-derived growth factor [PDGF]
E-selectin expression (E-selectin [1]): did not stimulate
production of IFN-γ vs no treatment controls (interferon-γ (IFN-γ) [2]): significantly increased
thrombomodulin production (thrombomodulin [3]): significantly increased
production of TNF-α vs no treatment controls [4]: significantly increased
thrombomodulin expression (thrombomodulin [5]): induced
production of IL-6 vs no treatment controls (interleukin-6 (IL-6) [6]): significantly increased
P-selectin production (P-selectin [7]): significantly increased
P-selectin expression (P-selectin [8]): induced
production of IFN-γ vs no treatment controls (interferon-γ (IFN-γ) [9]): significantly increased
enhancement of EC migration [10]: 40.3%
thrombomodulin production (thrombomodulin [11]): significantly increased
EC proliferation [12]: significantly increased
production of TNF-α vs no treatment controls [13]: significantly increased
E-selectin expression (E-selectin [14]): did not stimulate
metabolic activity [15]: not impacted
phosphorylation of p38 (p38 MAPK (p38)): did not alter
E-selectin production vs no treatment controls (E-selectin [16]): did not alter
IL-6 production vs no treatment controls (interleukin-6 (IL-6) [17]): did not alter
metabolic activity of ECs [18]: did not influence
metabolic activity [19]: not impacted
ERK-1/2 phosphorylation vs no treatment controls (ERK-1/2): increased
P-selectin production (P-selectin [20]): significantly increased
